{"source": "patent US10357516B2", "about": "(priority 2008, dated 2019)", "key": {"Escherichia coli": {"tested_on": "Escherichia coli", "test": "Pathogen inactivation in RBC units (log reduction)", "format": "cell-based"}, "P. aeruginosa": {"tested_on": "P. aeruginosa", "test": "Pathogen inactivation in RBC units (log reduction), high level input", "format": "cell-based, Pseudomonas aeruginosa", "method": "Bacteria: Frozen working stocks of bacteria were inoculated into a 500 mL flask containing a mixture of 50% yeast extract media without added glucose and 50% fetal bovine serum. The flasks were incubated overnight in a shaking waterbath set at 37° C. Gram positive bacteria were spiked into the blood product directly from the overnight culture. The overnight cultures of Gram negative bacteria were further subcultured by a 1:1000 dilution into fresh culture medium and incubated as above until they reach log phase as determined by optical density. This log phase growth was spiked into the blood product for PI experiments.\nThe PI process involves inoculation of RBC units with a culture of the organism to be tested. The typical target input titer of organisms in the RBC units was approximately 10^6 cfu or pfu/mL of RBC. In most cases the organism volume (including any culture medium) was approximately 1% of the RBC unit volume and was not typically greater than 10%. To evaluate inactivation of lower, more physiologically relevant, levels of bacteria, inputs from 10 to 10^5 cfu/unit were used.\nThe dosing solutions were prepared and added to the units as follows: A 600 mM Glutathione (GSH) solution with 1 equivalent of NaOH was prepared by dissolving 2.8 g of GSH in ˜12 mL of 0.9% saline and 0.9 mL of 10 N NaOH. The appropriate volume of GSH solution was drawn into a 20 mL capacity syringe. The volume used was typically 10 mL of GSH solution per 280 mL of RBC, plus 2 mL line loss to generate 20 mM GSH in the dosed RBC unit. The syringe containing GSH was attached to the mixing container using the filtered lead that shares a Y fitting with the lead connected to the incubation container. The unit was placed on a rocker to facilitate top to bottom mixing during addition of dosing solutions. The GSH was added to the unit while the unit is mixing on the rocker. […]\nLog reduction for each unit was determined by taking the log of the ratio of pre-treatment titer to post-treatment titer, where titers were expressed as 10×cfu or pfu/mL. […]"}, "Staphylococcus aureus": {"tested_on": "Staphylococcus aureus", "test": "Pathogen inactivation in RBC units (log reduction)", "format": "cell-based"}, "Yersinia enterocolitica": {"tested_on": "Yersinia enterocolitica", "format": "cell-based"}, "[1]": {"tested_on": "Vesicular stomatitis virus (VSV)", "format": "cell-based"}, "Pseudomonas aerugenosa": {"tested_on": "Pseudomonas aerugenosa", "test": "Low level input full unit inactivation in RBC units", "format": "cell-based, Pseudomonas aeruginosa"}, "Serratia marcescens": {"tested_on": "Serratia marcescens", "test": "Pathogen inactivation in RBC units (log reduction)", "format": "cell-based"}, "[2]": {"details": "diluted SAG-M RBC units, 20 mM GSH sodium salt, 0.2 mM S-303, 3 hour incubation, n = 4"}, "[3]": {"details": "high level input, 130 μM S-303, 13 mM GSH (1 b.e.), diluted with diluent solution, 3 h RT, N = 2"}, "[4]": {"details": "high level input, 200 μM S-303, 20 mM GSH (1 b.e.), without leukofiltration, 3 h RT, N = 2"}, "[5]": {"details": "high level input, 200 μM S-303, 20 mM GSH (1 b.e.), 3 h RT, N = 2"}, "[6]": {"details": "low level input, 200 μM S-303, 20 mM GSH (1 b.e.), RT 20 hours then 37° C. ~20 hours"}}, "note": "Marks after values point to notes of the source that are not given here.", "data": [{"compound": "O=C(CCNc1c2ccccc2nc2ccccc12)OCCN(CCCl)CCCl", "note": "[S-303, β-alanine, N-(acridin-9-yl), 2-[bis(2-chloroethyl)amino]ethyl ester]", "values": [{"measurement": "Log Reduction GSH (20 mM), 1 b.e.", "setting": "Escherichia coli", "result": "5.9 ± 0.8", "unit": "log"}, {"measurement": "Log Reduction GSH (20 mM), 2 b.e.", "setting": "Escherichia coli", "result": 6.5, "unit": "log"}, {"measurement": "Average Log Kill", "setting": "Escherichia coli; [2]", "result": "≥6.69", "unit": "log"}, {"measurement": "Mean Log10 Reduction, 40% Hematocrit", "setting": "Escherichia coli; [3]", "result": 6.6, "unit": "log10"}, {"measurement": "Mean Log10 Reduction, 60% Hematocrit", "setting": "Escherichia coli; high level input, 200 μM S-303, 20 mM GSH (1 b.e.), 3 h RT, n = 3", "result": "6.1^c log10"}, {"measurement": "Mean Log10 Reduction, 80% Hematocrit", "setting": "Escherichia coli; [4]", "result": "3.8^b log10"}, {"measurement": "Log Reduction GSH (20 mM), 1 b.e.", "setting": "P. aeruginosa; P. aeruginosa, 0.2 mM S-303, 20 mM GSH with 1 equivalent NaOH, AS-3 RBC ~60% hematocrit, 3 h at 20 to 25° C.", "result": "1.2 ± 0.4", "unit": "log"}, {"measurement": "Log Reduction GSH (20 mM), 2 b.e.", "setting": "P. aeruginosa; P. aeruginosa, previous conditions, GSH neutralized with 2 equivalents NaOH", "result": 1.8, "unit": "log"}, {"measurement": "Average Log Kill", "setting": "P. aeruginosa; [2]", "result": 3.35, "unit": "log"}, {"measurement": "Log Reduction GSH (20 mM), 1 b.e.", "setting": "Staphylococcus aureus", "result": "6.0 ± 0.3", "unit": "log"}, {"measurement": "Log Reduction GSH (20 mM), 2 b.e.", "setting": "Staphylococcus aureus", "result": 6.4, "unit": "log"}, {"measurement": "Average Log Kill", "setting": "Staphylococcus aureus; [2]", "result": 4.15, "unit": "log"}, {"measurement": "Mean Log10 Reduction, 40% Hematocrit", "setting": "Staphylococcus aureus; [3]", "result": ">7", "unit": "log10"}, {"measurement": "Mean Log10 Reduction, 60% Hematocrit", "setting": "Staphylococcus aureus; [5]", "result": 6.7, "unit": "log10"}, {"measurement": "Mean Log10 Reduction, 80% Hematocrit", "setting": "Staphylococcus aureus; [4]", "result": "≥5.8^b log10"}, {"measurement": "Log Reduction GSH (20 mM), 1 b.e.", "setting": "Yersinia enterocolitica; Y. enterocolitica, 0.2 mM S-303, 20 mM GSH with 1 equivalent NaOH, AS-3 RBC ~60% hematocrit, 3 h at 20 to 25° C.", "result": "5.0 ± 0.4", "unit": "log"}, {"measurement": "Log Reduction GSH (20 mM), 2 b.e.", "setting": "Yersinia enterocolitica; Y. enterocolitica, previous conditions, GSH neutralized with 2 equivalents NaOH", "result": 4.6, "unit": "log"}, {"measurement": "Average Log Kill", "setting": "Yersinia enterocolitica; [2]", "result": "≥6.57", "unit": "log"}, {"measurement": "Mean Log10 Reduction, 40% Hematocrit", "setting": "Yersinia enterocolitica; [3]", "result": 6.1, "unit": "log10"}, {"measurement": "Mean Log10 Reduction, 60% Hematocrit", "setting": "Yersinia enterocolitica; [5]", "result": 4.9, "unit": "log10"}, {"measurement": "Mean Log10 Reduction, 80% Hematocrit", "setting": "Yersinia enterocolitica; [4]", "result": "3.4^b log10"}, {"measurement": "Log Reduction GSH (20 mM), 1 b.e.", "setting": "[1]", "result": ">5.9", "unit": "log"}, {"measurement": "Log Reduction GSH (20 mM), 2 b.e.", "setting": "[1]", "result": 4.2, "unit": "log"}, {"measurement": "Mean Log10 Reduction, 40% Hematocrit", "setting": "[1]; N = 2", "result": 5.9, "unit": "log10"}, {"measurement": "Mean Log10 Reduction, 60% Hematocrit", "setting": "[1]; N = 2", "result": ">5.9", "unit": "log10"}, {"measurement": "Mean Log10 Reduction, 80% Hematocrit", "setting": "[1]; N = 2", "result": ">6.2^b log10"}, {"measurement": "Pathogen inactivation of Pseudomonas aeruginosa", "setting": "Pseudomonas aerugenosa", "result": "complete inactivation"}, {"measurement": "Full Unit Inactivation, 40% Hematocrit", "setting": "Pseudomonas aerugenosa; low level input, 130 μM S-303, 13 mM GSH (1 b.e.), RT 20 hours then 37° C. ~20 hours", "result": "≥2.5", "unit": "log10"}, {"measurement": "Full Unit Inactivation, 60% Hematocrit", "setting": "Pseudomonas aerugenosa; [6]", "result": "≥2.5", "unit": "log10"}, {"measurement": "Full Unit Inactivation, 80% Hematocrit", "setting": "Pseudomonas aerugenosa; [6]", "result": "≥2.7", "unit": "log10"}, {"measurement": "Log Reduction GSH (20 mM), 1 b.e.", "setting": "Serratia marcescens", "result": "3.7 ± 0.4", "unit": "log"}, {"measurement": "Log Reduction GSH (20 mM), 2 b.e.", "setting": "Serratia marcescens", "result": 4.8, "unit": "log"}, {"measurement": "Average Log Kill", "setting": "Serratia marcescens; [2]", "result": 4.20, "unit": "log"}, {"measurement": "Mean Log10 Reduction, 40% Hematocrit", "setting": "Serratia marcescens; [3]", "result": 3.1, "unit": "log10"}, {"measurement": "Mean Log10 Reduction, 60% Hematocrit", "setting": "Serratia marcescens; [5]", "result": 4.5, "unit": "log10"}, {"measurement": "Mean Log10 Reduction, 80% Hematocrit", "setting": "Serratia marcescens; [4]", "result": "4.4^b log10"}]}]}
